Laboratory results published in ChEMBL document CHEMBL1921744, “Lipophosphonoxins: new modular molecular structures with significant antibacterial properties” (J Med Chem, 2011).
Values after ≈ are worked out from the molar mass of the structure shown.

Tested on: Mycobacterium tuberculosis
Assay: Antimycobacterial activity against drug-resistant Mycobacterium tuberculosis
Assay type: functional

Structure (SMILES): CO[C@@H]1[C@@H](OC)[C@H](C)O[C@@H](OC(=O)C[C@@H](C)CC(=O)O[C@@H](CCCCCCCCCCCC(C)C)CC(=O)O[C@H]2CN(C)[C@@H]([C@H](O[C@@H]3O[C@H](CN)[C@@H](O)[C@H]3O)[C@H]3O[C@@H](n4ccc(=O)[nH]c4=O)[C@H](O)[C@@H]3O)C(=O)N(C)[C@@H]2C(=O)O)[C@@H]1OC [CAPRAZAMYCIN B]
- MIC: 3.13 µg/mL (≈ 2.7 µM)
